Test results taken from patent US6124334A, “Hetero-aromatic ring substituted phenyloxazolidinone antimicrobials” (Pharmacia & Upjohn Company, priority 1998, dated 2000).
Values after ≈ are worked out from the molar mass of the structure shown. Values joined by “and” are separate entries in the source; they are usually repeats but may differ in a detail not shown here. Equal values may be shown once.

How the values were obtained:
S. pneumoniae, UC ®9912 = test: In vitro MIC by agar dilution, S. pneumoniae; type: cell-based; settings: Streptococcus pneumoniae, UC9912, read-out: In vitro Activities: Minimum Inhibitory Concentrations, S. pneumoniae, UC 9912
From the text: The oxazolidinone antibacterial agents of this invention have useful activity against a variety of organisms. The in vitro activity of compounds of this invention can be assessed by standard testing procedures such as the determination of minimum inhibitory concentration (MIC) by agar dilution as desribed in "Methods for Dilution Antimicrobial Susceptibility Tests for Bacteria That Grow Aerobically" (MFT) published January 1983 by the National Committee for Clinical Laboratory Standards, 771 East Lancaster Avenue, Villanova, Pa. 19084, USA. The activity of selected compounds of this invention against Staphylococcus aureus and Streptococcus pneumoniae are shown in Table 1.

S. aureus, UC ®9213 = test: In vivo Murine Assay procedure, ED50 (survival of infected mice); parameters: species or system Staphylococcus aureus; female mice
Procedure: Antimicrobial activity was tested in vivo using the Murine Assay procedure. Groups of female mice (six mice of 18-20 grams each) were injected intraperitoneally with bacteria which were thawed just prior to use and suspended in brain heart infusion with 4% brewers yeast UC9213 (Staphylococcus aureus) or brain heart infusion (Streptococcus species). Antibiotic treatment at six dose levels per drug was administered one hour and five hours after infection by either oral intubation or subcutaneous ("subcut.") routes. Survival was observed daily for six days. ED50 values based on mortality ratios were calculated using probit analysis. The subject compounds were compared against a well-known antimicrobial (Vancomycin) as a control.

**Q.** With `CN[C@H](CC(C)C)C(=O)N[C@H]1C(=O)N[C@@H](CC(N)=O)C(=O)N[C@H]2C(=O)N[C@H]3C(=O)N[C@H](C(=O)N[C@H](C(=O)O)c4cc(O)cc(O)c4-c4cc3ccc4O)[C@H](O)c3ccc(c(Cl)c3)Oc3cc2cc(c3O[C@@H]2O[C@H](CO)[C@@H](O)[C@H](O)[C@H]2O[C@H]2C[C@](C)(N)[C@H](O)[C@H](C)O2)Oc2ccc(cc2Cl)[C@H]1O` [Vancomycin] as the compound, how does the MIC (S. pneumoniae, UC ®9912) read?
**A.** 0.5 µg/mL (≈ 0.345 µM)

**Q.** What about the ED50 (S. aureus, UC ®9213; Staphylococcus aureus, UC9213, 144 h, read-out: Control, ED50) of the same compound?
**A.** 2.2 mg/kg

**Q.** What about the “Control, ED50” value (S. aureus, UC ®9213; vancomycin control run beside the Example of the same line, mice infected i.p. with S. aureus UC 9213, treatment 1 h and 5 h after infection, oral or subcutaneous, 8640 min) of the same compound?
**A.** 2.4 mg/kg and 2.0 mg/kg and 1.2 mg/kg
